According to patent US11746087B1, “C4-carboxylic acid-substituted tryptamine derivatives and methods of using” (priority 2022, dated 2023):

Assays:
[1] = target: T1, 5-HT2A receptor (Mus musculus, UniProt P35363); assay: Drug-induced Head Twitch Response (HTR); assay type: in vivo; settings: C57BL/6 mice; 1 mg/kg i.p.; 15-to-30-minute window after administration
T1 construct: 8-week old C57BL/6-Elite male and female mice were obtained from Charles River; tissue Charles River; host or cells: living C57BL/6-Elite mice (neuronal receptor, in vivo)

[2] = target: T2, 5-HT1A receptor (Homo sapiens, UniProt P08908); assay: cAMP-Glo assay in +5-HT1A vs −5-HT1A CHO-K1 cells; assay type: cell-based; settings: for 5-HT1A receptor modulation, +5-HT1A vs −5-HT1A cultures: cAMP assay with 4 mM forskolin; for cAMP levels in +5-HT1A cells with increasing ligand: cells stimulated with 4 mM forskolin, compared with −5-HT1A cells
T2 construct: host or cells: CHO-K1 (co-expressing Ga15)
T2 sequence (P08908 1-422): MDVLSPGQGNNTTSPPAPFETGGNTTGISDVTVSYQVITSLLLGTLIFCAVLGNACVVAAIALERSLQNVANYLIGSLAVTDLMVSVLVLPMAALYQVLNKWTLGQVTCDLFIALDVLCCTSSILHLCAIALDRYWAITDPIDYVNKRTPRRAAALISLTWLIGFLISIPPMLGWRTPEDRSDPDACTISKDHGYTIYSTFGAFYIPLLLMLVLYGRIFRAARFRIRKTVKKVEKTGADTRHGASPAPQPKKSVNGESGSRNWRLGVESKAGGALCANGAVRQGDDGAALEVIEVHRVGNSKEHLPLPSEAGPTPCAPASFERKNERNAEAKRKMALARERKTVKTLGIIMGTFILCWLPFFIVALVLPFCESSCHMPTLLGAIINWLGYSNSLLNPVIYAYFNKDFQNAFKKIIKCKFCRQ

[3] = target: 5-HT2A receptor (Homo sapiens, UniProt P28223); assay: [3H]ketanserin competition binding assay (SPA); settings: 1 nM [3H]ketanserin; control ligands, FIG. 3E, 3F
[4] = Metabolic stability / psilocin release in human liver microsomes; assay type: in vitro ADME; settings: 400 μg/ml HLM, NADPH, 37° C.
From the text: (§1) A fundamental evaluation in drug development is the assessment of absorption, distribution, metabolism, excretion, and pharmacokinetics (ADME/PK) (Eddershaw et al., 2000, Drug Discovery Today 5(9): 409-414). […] Drug stability upon exposure to human liver microsomes and liver S9 cellular fractions is a common in vitro assay to approximate in vivo, liver-based drug metabolism (Richardson et al., 2016 Drug Metabolism Letters 10:83-90). First-pass metabolism is also often approximated in vitro using intestinal microsome and cellular S9 fractions (Hatley et al., 2017, Biopharmaceuticals & Drug Disposition, 38(2):155-160). […] Supernatants were analyzed for the presence of candidate prodrugs (parent molecule) and psilocin (the predicted metabolite) using Orbitrap LC-MS (Thermo Scientific) using previously described methods (Menéndez-Perdomo et al., 2021, J Mass Spectrom, 56: e4683). […] Assay concentrations (μM) of both parent ‘prodrug’ molecule and psilocin metabolite, as quantified through LC-MS using routine standard curve procedures, were plotted as functions of assay time (minutes). The metabolism rate (T1/2) was determined from the metabolism curve plot using the one phase decay feature of GraphPad PRISM software (Version 9.2.0). The quantity of parent prodrug at time zero was set as 100%. […]

[5] = Metabolic stability / psilocin release in human liver S9; assay type: in vitro ADME; settings: 400 μg/ml HLS9, NADPH, 37° C.
From the text: as §1

[6] = Stability / psilocin release in enzyme-free control buffer; assay type: in vitro ADME; settings: enzyme-free control buffer pH 7.4, 37° C., 2 hours
From the text: as §1

[7] = Mouse PK study (IV and PO), plasma parent compound and psilocin by LC-MS/MS; assay type: in vivo; settings: mouse; for Plasma concentration of psilocybin: psilocybin 1 mg/kg i.v.
From the text: Briefly, the procedure was as follows. […] 19, 2022.

Sequence of 5-HT2A receptor (Homo sapiens, UniProt P28223) (P28223 whole entry): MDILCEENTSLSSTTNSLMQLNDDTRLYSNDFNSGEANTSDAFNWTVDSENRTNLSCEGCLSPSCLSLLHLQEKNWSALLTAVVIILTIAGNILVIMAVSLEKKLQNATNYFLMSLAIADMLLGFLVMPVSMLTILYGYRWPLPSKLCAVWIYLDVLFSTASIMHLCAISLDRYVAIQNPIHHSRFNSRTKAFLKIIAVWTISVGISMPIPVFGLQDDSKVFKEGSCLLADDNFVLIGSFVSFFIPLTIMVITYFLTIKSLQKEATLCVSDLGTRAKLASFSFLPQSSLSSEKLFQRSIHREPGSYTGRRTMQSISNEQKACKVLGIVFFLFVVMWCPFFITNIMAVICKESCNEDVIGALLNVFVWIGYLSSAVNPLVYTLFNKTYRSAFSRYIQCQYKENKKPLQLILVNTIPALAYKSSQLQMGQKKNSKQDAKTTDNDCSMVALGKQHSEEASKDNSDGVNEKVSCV
T1 sequence (P35363 whole entry): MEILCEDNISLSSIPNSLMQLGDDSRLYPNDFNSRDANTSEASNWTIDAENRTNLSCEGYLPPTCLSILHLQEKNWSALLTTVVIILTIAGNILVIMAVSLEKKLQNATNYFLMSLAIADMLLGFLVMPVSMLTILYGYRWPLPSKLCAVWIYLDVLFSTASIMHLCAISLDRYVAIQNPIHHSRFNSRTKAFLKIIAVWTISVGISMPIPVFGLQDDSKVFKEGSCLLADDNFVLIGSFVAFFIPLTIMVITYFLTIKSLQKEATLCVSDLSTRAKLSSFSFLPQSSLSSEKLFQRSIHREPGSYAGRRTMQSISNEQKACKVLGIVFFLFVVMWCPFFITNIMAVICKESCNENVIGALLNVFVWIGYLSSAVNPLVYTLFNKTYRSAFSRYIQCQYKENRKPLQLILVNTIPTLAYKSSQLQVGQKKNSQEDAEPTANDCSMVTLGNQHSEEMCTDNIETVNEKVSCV

For `COCCOCCOCC(=O)Oc1cccc2[nH]cc(CCN(C)C)c12` [C(III)], the “Head Twitch Response (HTR) incidence relative to vehicle” value [1] was “Elevated incidences of HTR” and the “5-HT1A receptor modulation, +5-HT1A vs −5-HT1A cultures” value [2] was “significant receptor modulation”.
In the case of `CN(C)CCc1c[nH]c2cccc(OC(=O)c3cccc(C(=O)Oc4cccc5[nH]cc(CCN(C)C)c45)c3)c12` [C(VII)], the “Head Twitch Response (HTR) incidence relative to vehicle” value [1] is reported as “Elevated incidences of HTR” and the “5-HT1A receptor modulation, +5-HT1A vs −5-HT1A cultures” value [2] is reported as “no significant receptor modulation”.
In the case of `COC(=O)c1cccc(C(=O)Oc2cccc3[nH]cc(CCN(C)C)c23)c1` [C(XLIII)], the “5-HT1A receptor modulation, +5-HT1A vs −5-HT1A cultures” value [2] is reported as “receptor modulation at higher ligand concentrations”.
With `CN(C)CCc1c[nH]c2cccc(O)c12` [psilocin, reference compound] the “cAMP levels in +5-HT1A cells with increasing ligand” value [2] was “reduction in cAMP levels” and the “competition binding vs [3H]ketanserin at 5-HT2A receptor” value [3] was “binding”.
With `CN(C)CCc1c[nH]c2cccc(OP(=O)(O)O)c12` [psilocybin, reference compound] the “stability / conversion to psilocin in liver fractions (HLM)” value [4] was “stable in liver fractions with no conversion to psilocin”, the “stability / conversion to psilocin in liver fractions (HLS9)” value [5] was “stable in liver fractions with no conversion to psilocin” and the “stability in assay buffer” value [6] was “stability of psilocybin was confirmed”. For the same compound, the “detectability of parent compound in plasma, i.v. dosing” value ([7]; 1 mg/kg i.v.) was “only detectable in i.v. administered animals”, the “detectability of parent compound in plasma, oral dosing” value ([7]; oral, any dose (1, 3, 10 mg/kg)) was “not detectable” and the “Plasma concentration of psilocybin” value ([7]; 2 h) was “No Peak”. For the same compound, the “Plasma concentration of psilocybin” value ([7]; 4 h) was “No Peak”, the “Plasma concentration of psilocybin” value ([7]; 6 h) was “No Peak” and the “Plasma concentration of psilocin” value ([7]; psilocybin 1.56 mg/kg oral (nominal 1 mg/kg), 24 h) was “BLQ”.
With `NCCc1c[nH]c2ccc(O)cc12` [serotonin, reference compound] the “cAMP levels in +5-HT1A cells with increasing ligand” value [2] was “reduction in cAMP levels”.
For `N[C@@H](Cc1c[nH]c2ccccc12)C(=O)O` [tryptophan, reference compound], the “cAMP levels in +5-HT1A cells with increasing ligand” value [2] was “no reduction in cellular cAMP levels” and the “competition binding vs [3H]ketanserin at 5-HT2A receptor” value [3] was “no binding”.
